# Experimental data reported in patent publication US20160222056A1, “SUBSTITUTED PHENYLALANINE DERIVATIVES” (BAYER PHARMA AKTIENGESELLSCHAFT, priority 2013, published 2016).
# Counter-ions that a name gives are not always drawn.
# Legend:
# Assay type in all cases: biochemical
# human factor XIa = molecular target: T1, human factor XIa (Homo sapiens, UniProt P03951); experiment: Measurement of FXIa inhibition (fluorogenic peptide substrate); conditions: human factor XIa from Kordia, substrate Boc-Glu(OBzl)-Ala-Arg-AMC, 30 min at 22° C.; read-out: IC50 (FXIa inhibition)
# T1 construct: purchased Kordia
# T1 sequence (P03951 388-625 limits assumed): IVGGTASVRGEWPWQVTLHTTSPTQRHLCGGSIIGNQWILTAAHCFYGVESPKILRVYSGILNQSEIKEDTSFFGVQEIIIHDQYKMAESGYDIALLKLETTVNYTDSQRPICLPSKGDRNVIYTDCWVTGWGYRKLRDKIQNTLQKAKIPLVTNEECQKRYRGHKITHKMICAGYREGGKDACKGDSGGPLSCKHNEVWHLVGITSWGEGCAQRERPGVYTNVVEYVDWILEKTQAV
# T1 sequence (P03951 19-387 partner limits assumed): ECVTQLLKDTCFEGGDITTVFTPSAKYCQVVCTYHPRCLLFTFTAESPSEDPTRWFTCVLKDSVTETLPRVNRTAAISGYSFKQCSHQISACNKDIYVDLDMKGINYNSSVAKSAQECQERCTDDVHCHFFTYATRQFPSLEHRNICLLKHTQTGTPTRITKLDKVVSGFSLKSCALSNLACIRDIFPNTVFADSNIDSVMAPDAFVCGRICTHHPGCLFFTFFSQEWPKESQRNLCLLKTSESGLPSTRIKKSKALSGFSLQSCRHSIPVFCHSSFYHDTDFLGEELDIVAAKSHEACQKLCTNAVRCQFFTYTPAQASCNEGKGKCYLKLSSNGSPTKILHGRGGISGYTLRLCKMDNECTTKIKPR
# Description: To determine the factor XIa inhibition of the substances according to the invention, a biochemical test system is used which utilizes the reaction of a peptidic factor XIa substrate to determine the enzymatic activity of human factor XIa. Here, factor XIa cleaves from the peptic factor XIa substrate the C-terminal aminomethylcoumarin (AMC), the fluorescence of which is measured. The determinations are carried out in microtitre plates.
# (§1) Test substances are dissolved in dimethyl sulphoxide and serially diluted in dimethyl sulphoxide (3000 μM to 0.0078 μM; resulting final concentrations in the test: 50 μM to 0.00013 μM). In each case 1 μl of the diluted substance solutions are placed into the wells of white microtitre plates from Greiner (384 wells). Subsequently, the following are added successively: 20 μl of assay buffer (50 mmol/1 Tris buffer pH 7.4; 100 mmol/1 sodium chloride; 5 mmol/1 calcium chloride; 0.1% bovine serum albumin) and 20 μl of factor XIa from Kordia (0.45 nM in assay buffer). After 15 min of incubation, the enzyme reaction is started by addition of 20 μl of the factor XIa substrate Boc-Glu(OBzl)-Ala-Arg-AMC dissolved in assay buffer (10 μM in assay buffer) from Bachem, the mixture is incubated at room temperature (22° C.) for 30 min and fluorescence is then measured (excitation: 360 nm, emission: 460 nm). The measured emissions of the test batches with test substance are compared to those of control batches without test substance (only dimethyl sulphoxide instead of test substance in dimethyl sulphoxide), and the IC50 values are calculated from the concentration/activity relationships.
# human and animal plasma = experiment: Anticoagulatory activity: activated partial thromboplastin time (aPTT) in plasma; conditions: in vitro in plasma, C.K. Prest kit, 37° C. for 3 minutes; plasma species of Table B not stated
# Description: The anticoagulatory activity of the test substances is determined in vitro in human and animal plasma (for example mouse, rat, rabbit, pig and dog plasma). To this end, blood is drawn off in a mixing ratio of sodium citrate/blood of 1:9 using a 0.11 molar sodium citrate solution as receiver. Immediately after the blood has been drawn off, it is mixed thoroughly and centrifuged at about 4000 g for 15 minutes. The supernatant is pipetted off.
# The activated partial thromboplastin time (aPTT) is determined in the presence of varying concentrations of test substance or the corresponding solvent using a commercial test kit (C.K. Prest from Diagnostica Stago). The test compounds are incubated with the plasma and the PTT reagent (cephalin, kaolin) at 37° C. for 3 minutes. Coagulation is then started by addition of 25 mM aqueous calcium chloride, and the time when coagulation occurs is determined. The concentration of test substance which brings about a 1.5-fold extension of the aPTT is determined.
# human plasmin = molecular target: T2, human plasmin (Homo sapiens, UniProt P00747); experiment: Measurement of plasmin inhibition (fluorogenic peptide substrate); conditions: plasmin from Kordia, substrate MeOSuc-Ala-Phe-Lys-AMC, 30 min at 22° C.
# T2 construct: purchased Kordia
# T2 sequence (P00747 581-810 limits assumed): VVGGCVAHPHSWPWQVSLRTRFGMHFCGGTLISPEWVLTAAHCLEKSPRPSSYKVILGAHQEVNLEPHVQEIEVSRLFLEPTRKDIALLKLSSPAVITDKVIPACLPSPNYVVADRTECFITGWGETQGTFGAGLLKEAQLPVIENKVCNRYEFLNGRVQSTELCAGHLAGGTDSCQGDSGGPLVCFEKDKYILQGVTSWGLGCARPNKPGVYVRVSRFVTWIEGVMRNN
# T2 sequence (P00747 97-580 partner limits assumed): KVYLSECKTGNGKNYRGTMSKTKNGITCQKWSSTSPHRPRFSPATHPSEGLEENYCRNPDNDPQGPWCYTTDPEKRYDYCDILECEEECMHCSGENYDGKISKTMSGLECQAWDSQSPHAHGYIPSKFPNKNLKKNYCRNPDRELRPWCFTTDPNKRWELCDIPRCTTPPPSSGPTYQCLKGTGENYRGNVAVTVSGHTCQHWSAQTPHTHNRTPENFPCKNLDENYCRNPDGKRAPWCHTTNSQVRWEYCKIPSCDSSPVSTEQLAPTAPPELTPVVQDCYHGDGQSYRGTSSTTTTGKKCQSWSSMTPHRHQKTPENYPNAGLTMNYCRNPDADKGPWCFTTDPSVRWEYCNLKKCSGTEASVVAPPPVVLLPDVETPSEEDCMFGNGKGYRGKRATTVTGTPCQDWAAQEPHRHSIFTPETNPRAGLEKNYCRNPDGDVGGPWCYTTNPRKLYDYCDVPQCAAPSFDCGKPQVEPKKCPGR
# Description: The plasmin inhibition of the inventive substances is determined using a biochemical test system which utilizes the reaction of a peptidic plasmin substrate to determine the enzymatic activity of human plasmin. Here, plasmin cleaves from the peptic plasmin substrate the C-terminal aminomethylcoumarin (AMC), the fluorescence of which is measured. The determinations are carried out in microtitre plates.
# as §1, with “plasmin” for “factor XIa”, “(0.3 μg/ml” for “(0.45 nM”, “MeOSuc-Ala-Phe-Lys-AMC” for “Boc-Glu(OBzl)-Ala-Arg-AMC”, “(150” for “(10”
SMILES,IC50 (human factor XIa),IC50 (human plasmin),aPTT (concentration of test substance which brings about a 1.5-fold extension of the aPTT) (human and animal plasma)
"Cc1cc(C(=O)Nc2ccn(C)n2)ncc1-c1ccc(C[C@H](NC(=O)[C@H]2CC[C@H](CN)CC2)C(=O)Nc2ccc(-c3nnn[nH]3)cc2)cc1 [Example 23, N-alpha-{[trans-4-(Aminomethyl)cyclohexyl]carbonyl}-4-{4-methyl-6-[(1-methyl-1H-pyrazol-3-yl)carbamoyl]pyridin-3-yl}-N-[4-(1H-tetrazol-5-yl)phenyl]-L-phenylalaninamide hydrochloride]",2.5 nM,4.5 nM,0.17 µmol/L
"Cc1nc(C(=O)NC2CCC(N(C)C)CC2)ccc1-c1ccc(C[C@H](NC(=O)[C@H]2CC[C@H](CN)CC2)C(=O)Nc2ccc3[nH]c(=O)[nH]c3c2)cc1 (stereo partly drawn) [Example 27, N-alpha-{[trans-4-(Aminomethyl)cyclohexyl]carbonyl}-4-(6-{[4-(dimethylamino)cyclohexyl]-carbamoyl}-2-methylpyridin-3-yl)-N-(2-oxo-2,3-dihydro-1H-benzimidazol-5-yl)-L-phenylalaninamide hydrochloride]",19 nM,,0.22 µmol/L
"Cc1cc(C(=O)N[C@@H]2CCCNC2=O)ncc1-c1ccc(C[C@H](NC(=O)[C@H]2CC[C@H](CN)CC2)C(=O)Nc2ccc3[nH]c(=O)[nH]c3c2)cc1 [Example 28, N-alpha-{[trans-4-(Aminomethyl)cyclohexyl]carbonyl}-4-(4-methyl-6-{[(3R)-2-oxopiperidin-3-yl]carbamoyl}pyridin-3-yl)-N-(2-oxo-2,3-dihydro-1H-benzimidazol-5-yl)-L-phenylalaninamide hydrochloride]",20 nM,,0.39 µmol/L
"Cc1nc(C(=O)N[C@H](C)CO)ccc1-c1ccc(C[C@H](NC(=O)[C@H]2CC[C@H](CN)CC2)C(=O)Nc2ccc(-c3nn[nH]n3)cc2)cc1 [Example 29, N-alpha-{[trans-4-(Aminomethyl)cyclohexyl]carbonyl}-4-(6-{[(2R)-1-hydroxypropan-2-yl]carbamoyl}-2-methylpyridin-3-yl)-N-[4-(2H-tetrazol-5-yl)phenyl]-L-phenylalaninamide hydrochloride]",2.4 nM,10 nM,
"Cc1cc(C(=O)N2CCN(C)CC2)ncc1-c1ccc(C[C@H](NC(=O)[C@H]2CC[C@H](CN)CC2)C(=O)Nc2ccc(-c3nnn[nH]3)cc2)cc1 [Example 33, N-alpha-{[trans-4-(Aminomethyl)cyclohexyl]carbonyl}-4-{4-methyl-6-[(4-methylpiperazin-1-yl)carbonyl]pyridin-3-yl}-N-[4-(1H-tetrazol-5-yl)phenyl]-L-phenylalaninamide hydrochloride]",4.2 nM,,0.44 µmol/L
"Cc1nc(C(=O)NC2CCC2)ccc1-c1ccc(C[C@H](NC(=O)[C@H]2CC[C@H](CN)CC2)C(=O)Nc2ccc3cn[nH]c3c2)cc1 [Example 34, N-alpha-{[trans-4-(Aminomethyl)cyclohexyl]carbonyl}-4-[6-(cyclobutylcarbamoyl)-2-methylpyridin-3-yl]-N-1H-indazol-6-yl-L-phenylalaninamide hydrochloride]",8.2 nM,0.9 nM,0.41 µmol/L

# Further lines, with some results ahead:
IC50 (human factor XIa),IC50 (human plasmin),SMILES,aPTT (concentration of test substance which brings about a 1.5-fold extension of the aPTT) (human and animal plasma)
8.7 nM,1.1 nM,"Cc1nc(C(=O)NC(C)C(F)(F)F)ccc1-c1ccc(C[C@H](NC(=O)[C@H]2CC[C@H](CN)CC2)C(=O)Nc2ccc3cn[nH]c3c2)cc1 (stereo partly drawn) [Example 35, N-alpha-{[trans-4-(Aminomethyl)cyclohexyl]carbonyl}-N-1H-indazol-6-yl-4-{2-methyl-6-[(1,1,1-trifluoropropan-2-yl)carbamoyl]pyridin-3-yl}-L-phenylalaninamide hydrochloride]",0.49 µmol/L
11 nM,1.2 nM,"Cc1nc(C(=O)NC(C)C(F)(F)F)ccc1-c1ccc(C[C@H](NC(=O)[C@H]2CC[C@H](CN)CC2)C(=O)Nc2ccc3[nH]c(=O)[nH]c3c2)cc1 (stereo partly drawn) [Example 36, N-alpha-{[trans-4-(Aminomethyl)cyclohexyl]carbonyl}-4-{2-methyl-6-[(1,1,1-trifluoropropan-2-yl)carbamoyl]pyridin-3-yl}-N-(2-oxo-2,3-dihydro-1H-benzimidazol-5-yl)-L-phenylalaninamide hydrochloride]",0.21 µmol/L
13 nM,1.5 nM,"Cc1nc(C(=O)NC2CCC2)ccc1-c1ccc(C[C@H](NC(=O)[C@H]2CC[C@H](CN)CC2)C(=O)Nc2ccc3[nH]c(=O)[nH]c3c2)cc1 [Example 37, N-alpha-{[trans-4-(Aminomethyl)cyclohexyl]carbonyl}-4-[6-(cyclobutylcarbamoyl)-2-methylpyridin-3-yl]-N-(2-oxo-2,3-dihydro-1H-benzimidazol-5-yl)-L-phenylalaninamide hydrochloride]",0.2 µmol/L
14 nM,0.8 nM,"Cc1nc(C(=O)NC(C)C)ccc1-c1ccc(C[C@H](NC(=O)[C@H]2CC[C@H](CN)CC2)C(=O)Nc2cc(Cl)c3oc(=O)[nH]c3c2)cc1 [Example 38, N-alpha-{[trans-4-(Aminomethyl)cyclohexyl]carbonyl}-N-(7-chloro-2-oxo-2,3-dihydro-1,3-benzoxazol-5-yl)-4-[6-(isopropylcarbamoyl)-2-methylpyridin-3-yl]-L-phenylalaninamide hydrochloride]",0.99 µmol/L
4.3 nM,1.2 nM,"Cc1nc(C(=O)NC(C)C)ccc1-c1ccc(C[C@H](NC(=O)[C@H]2CC[C@H](CN)CC2)C(=O)Nc2ccc3c(=O)[nH][nH]c3c2)cc1 [Example 39, N-alpha-{[trans-4-(Aminomethyl)cyclohexyl]carbonyl}-4-[6-(isopropylcarbamoyl)-2-methylpyridin-3-yl]-N-(3-oxo-2,3-dihydro-1H-indazol-6-yl)-L-phenylalaninamide hydrochloride]",0.27 µmol/L
15.5 nM,1.8 nM,"Cc1nc(C(=O)NC(C)C)ccc1-c1ccc(C[C@H](NC(=O)[C@H]2CC[C@H](CN)CC2)C(=O)Nc2ccc3[nH]c(=O)[nH]c3c2)cc1 [Example 40, N-alpha-{[trans-4-(Aminomethyl)cyclohexyl]carbonyl}-4-[6-(isopropylcarbamoyl)-2-methylpyridin-3-yl]-N-(2-oxo-2,3-dihydro-1H-benzimidazol-5-yl)-L-phenylalaninamide hydrochloride]",
